Test results from the supplement of paper PMC10883282.
Structures can show the parent of a compound that is named as a salt.

What was measured:
Experiment in all cases: relative viability vs DMSO control (72 h) (fraction); higher = more viable cells
[1] = test system: SW982
In short: (§1)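 Sarcoma cell lines were seeded in 384-well plates at densities chosen for 80–90% confluence, then 24 h later given 2.5 µl of serially diluted compound drawn from source plates spanning 10 mM to 0.0002 mM. They were held 72 h at 37 °C, 5% CO2, with 0.1% DMSO vehicle and a 5 µM positive control included. Relative viability was read with ATPLite as percent growth and averaged over up to triplicate wells. Rescaling placed full at 1 and none at 0.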

[2] = test system: SK-ES-1
In short: as §1

[3] = test system: RD
In short: as §1

[4] = test system: KHOS-240S
In short: as §1

[5] = test system: RD-ES
In short: as §1

CC1(C)CC=C(c2nc(C3CC(C)(C)OC(C)(C)C3)ccc2NC(=O)c2nc(C#N)c[nH]2)CC1 [Edicotinib]
relative viability
Conditions | [1] | [2] | [3] | [4] | [5]
0.00017 µM | 1.05 | 1.04 | 1.123 | 1.03 | 0.9975
0.00051 µM | 1.04 | 1.06 | 1.09 | 1.01 | 1.01
0.00152 µM | 1.07 | 1.04 | 1.12 | 1.02 | 1.02
0.00457 µM | 1.07 | 1.01 | 1.07 | 1.05 | 1.02
0.01372 µM | 1.08 | 1.04 | 1.07 | 1.01 | 1.01
0.04115 µM | 1.064 | 1.06 | 1.12 | 1.05 | 0.999
0.1235 µM | 1.05 | 1.04 | 1.1 | 1.05 | 1.021
0.3704 µM | 1.066 | 1 | 1.1 | 1.05 | 1.01
1.111 µM | 1.07 | 0.986 | 1.07 | 1.118 | 1.01
3.333 µM | 1.07 | 0.958 | 1.05 | 1.06 | 0.987
10 µM | 1.07 | 0.969 | 1.06 | 0.841 | 0.968

Cc1cc2cc(Oc3ccnc(Nc4cccc(CS(=O)(=O)NCCN(C)C)c4)n3)ccc2[nH]1 [Sulfatinib]
relative viability
Conditions | [1] | [2] | [3] | [4] | [5]
0.00017 µM | 1.04 | 1.03 | 1.074 | 1.02 | 1.02
0.00051 µM | 1.04 | 1.03 | 1.09 | 1.02 | 0.998
0.00152 µM | 1.05 | 1.01 | 1.09 | 1.02 | 1.01
0.00457 µM | 1.06 | 1.03 | 1.123 | 1.03 | 0.996
0.01372 µM | 1.04 | 1.03 | 1.1 | 1.05 | 1.023
0.04115 µM | 1.03 | 1.05 | 1.094 | 1.02 | 1
0.1235 µM | 1.06 | 1.03 | 1.12 | 1.012 | 1
0.3704 µM | 1.02 | 1.03 | 1.09 | 0.961 | 1.01
1.111 µM | 0.971 | 1 | 1.07 | 0.936 | 0.992
3.333 µM | 0.719 | 0.859 | 0.981 | 0.741 | 0.87
10 µM | 0.226 | 0.455 | 0.456 | 0.382 | 0.579

CC#CC(=O)N1CCC[C@H]1c1nc(-c2ccc(C(=O)Nc3ccccn3)cc2)c2c(N)nccn12 [Acalabrutinib]
relative viability
Conditions | [1] | [2] | [3] | [4] | [5]
0.00017 µM | 1.048 | 0.978 | 1.13 | 1.06 | 0.9637
0.00051 µM | 1.037 | 0.989 | 1.13 | 1.06 | 0.979
0.00152 µM | 1.05 | 1.04 | 1.12 | 1.07 | 0.998
0.00457 µM | 1.05 | 1.03 | 1.15 | 1.09 | 0.982
0.01372 µM | 1.05 | 0.996 | 1.13 | 1.06 | 1
0.04115 µM | 1.034 | 0.998 | 1.09 | 1.06 | 0.99
0.1235 µM | 1.02 | 0.999 | 1.06 | 1.03 | 0.992
0.3704 µM | 1.02 | 1.02 | 1.06 | 1.04 | 1.021
1.111 µM | 1.02 | 1.012 | 1.09 | 1.041 | 1.02
3.333 µM | 1.01 | 1.02 | 1.13 | 1.04 | 0.974
10 µM | 0.955 | 0.983 | 1.07 | 1.05 | 0.9313

C=C1C[C@@H]2CC[C@@]34C[C@H]5O[C@H]6[C@@H](O3)[C@H]3O[C@H](CC[C@@H]3O[C@H]6[C@H]5O4)CC(=O)C[C@@H]3[C@@H](OC)[C@@H](C[C@H](O)CN)O[C@H]3C[C@H]3O[C@@H](CC[C@@H]1O2)C[C@@H](C)C3=C [Eribulin Mesylate]
relative viability
Conditions | [1] | [2] | [3] | [4] | [5]
1.37 pM | 1.061 | 1.05 | 1.069 | 1.11 | 1.04
4.1 pM | 1.08 | 1.06 | 1.041 | 1.09 | 1.02
12.3 pM | 1.05 | 0.861 | 0.9352 | 1.1 | 0.953
37 pM | 1.04 | 0.0486 | 0.683 | 0.9987 | 0.472
0.00011 µM | 0.801 | 0.0799 | 0.442 | 0.655 | 0.0831
0.00033 µM | 0.523 | 0.0234 | 0.268 | 0.504 | 0.0672
0.001 µM | 0.41 | 0.0171 | 0.254 | 0.365 | 0.041
0.003 µM | 0.336 | 0.0147 | 0.247 | 0.245 | 0.0209
0.009 µM | 0.307 | 0.0166 | 0.273 | 0.179 | 0.0188
0.027 µM | 0.309 | 0.019 | 0.254 | 0.15 | 0.0232
460 fM | 1.02 | 1.07 | 1.07 | 1.07 | 1.02

CC(C)(O)CNc1nc(Nc2ccnc(C(F)(F)F)c2)nc(-c2cccc(C(F)(F)F)n2)n1 [Enasidenib]
relative viability
Conditions | [1] | [2] | [3] | [4] | [5]
0.00017 µM | 1.04 | 1.02 | 1.11 | 1.08 | 0.965
0.00051 µM | 1.04 | 1.04 | 1.125 | 1.06 | 1
0.00152 µM | 1.05 | 1.03 | 1.11 | 1.053 | 1.02
0.00457 µM | 1.06 | 1.04 | 1.08 | 1.06 | 1.01
0.01372 µM | 1.05 | 1.02 | 1.1 | 1.08 | 1.012
0.04115 µM | 1.06 | 0.996 | 1.1 | 1.073 | 0.9861
0.1235 µM | 1.06 | 1.02 | 1.11 | 1.09 | 1.01
0.3704 µM | 1.102 | 0.968 | 1.08 | 1.09 | 1.02
1.111 µM | 1.129 | 0.921 | 1.09 | 1.09 | 1.01
3.333 µM | 1.18 | 0.893 | 1.09 | 1.081 | 1.02
10 µM | 1.22 | 0.663 | 1.04 | 0.989 | 1
